According to US12161715B2, “EGFR targeted therapy” (priority 2011, dated 2024):

Experiment: Case 3: conventional drugs approved for neuropathic pain
Type: in vivo, human
Conditions: failed back surgery syndrome; pregabalin follow-up 19 weeks

Row | Compound | NP response to conventional drug, Case 3
1 | NCC1(CC(=O)O)CCCCC1 [gabapentin] | unsuccessfully treated
2 | CC(C)C[C@H](CN)CC(=O)O [pregabalin] | responded
